Experimental data from patent US20070004653A1, “Stable lyophilized anthracycline glycosides” (priority 2005, published 2007).
Like-named read-outs stand apart in the source and are kept apart here.

Experiments:
[1] = Stability tests of Doxorubicin HCl solutions at room temperature (aglycone); format: physicochemical
Experimental: Doxorubicin hydrochloride (500 mg) was dissolved in 0.001 N hydrochloric acid (20 ml) at room temperature. The pH of this solution was 3.25.
Doxorubicin hydrochloride (500 mg) was dissolved in 0.1 N acetic acid (20 ml) at room temperature. The pH of this solution was 2.62. After 1 hour, ammonium acetate (4% molar amount with respect to the molar amount of the doxorubicin hydrochloride) was added to the solution and the solution kept at room temperature. The pH rose from 2.62 to 3.02. The results in table 46 show the stability data of this solution at room temperature.
Doxorubicin hydrochloride (500 mg) was dissolved in 0.05 M formic acid (20 ml) at room temperature. The pH of this solution was 2.52. After 1 hour, ammonium acetate (4% molar amount in respect of the molar amount of doxorubicin hydrochloride) was added and the solution kept at room temperature. The pH rose from 2.52 to 2.71.

[2] = Stability test of stabilized lyophilized Doxorubicin HCl (IRA-67 acetate resin); format: physicochemical
Experimental: Starting product was doxorubicin hydrochloride, 2.5% w/v in water. The pH of this solution was corrected to 4.6-4.8 with IN HCl. Then 1.5% molar amount of AMBERLITE® IRA-67 (1.6 M) acetate with respect to doxorubicin hydrochloride was added. After 2 hr of slurrying, the solution was filtered through a 0.4 micron membrane then it was, frozen and lyophilized.

[3] = Purification of Doxorubicin HCl: solution at pH 3.5 warmed to 60° C., aglycone; format: physicochemical
Experimental: Doxorubicin hydrochloride (500 mg) was dissolved in water (10 ml) at room temperature. A small amount of 0.1 N hydrochloric acid was added to lower the pH from 5.4 to 3.5. […]

[4] = Preparation of stable lyophilized anthracycline glycoside hydrochlorides: aglycone and dimer in the lyophilized product; format: physicochemical; conditions: frozen and lyophilized
Experimental: Idarubicin hydrochloride (500 mg) was dissolved in water (50 ml) and acetic acid and ammonium acetate (both 1.5% molar amount with respect to the molar amount of idarubicin hydrochloride) were added. The solution was frozen and lyophilized.
Idarubicin hydrochloride (500 mg) was dissolved in water (50 ml) and acetic acid and ammonium acetate (both 1.5% molar amount with respect to the molar amount of idarubicin hydrochloride) were added. Charcoal was then added (100 g) and the solution was stirred for two hours. After that, the suspension was filtered through 0.4 micron membrane and then the solution was frozen and lyophilized.
Doxorubicin hydrochloride (500 mg) was dissolved in water (20 ml) and the pH corrected to 3.5 with acetic acid at room temperature. The solution was then warmed to 60° C. for 2 hours and then ammonium acetate (1.5% molar amount with respect to the molar amount of doxorubicin hydrochloride) was added. Then the solution was quickly frozen and lyophilized.
Epirubicin hydrochloride (1550 mg) was dissolved in water (100 ml) and the pH corrected to 3.2-3.8 with hydrochloric acid at room temperature. The solution was then warmed to 60° C.-65° C. for 1 hours and then the solution was cooled to 50-60° C. At the same time, the pH was corrected to 4.5-5.0 with sodium hydroxide. Then the solution was quickly frozen and lyophilized.
Idarubicin hydrochloride (5.0 g) was dissolved in water (500 ml). Then 58 microlitres of AMBERLITE® IRA-67 (1.6M) acetate (meaning 1.0% molar amount with respect to the molar amount of idarubicin hydrochloride) and 4.5 mg of acetic acid (meaning 0.8% molar amount with respect to the molar amount of idarubicin hydrochloride) were added. The suspension was slurried for two hours, then filtered, frozen and lyophilized.
Doxorubicin hydrochloride (5.0 g) was dissolved in water (200 ml) and the pH corrected to 4.6-4.8 with IN hydrochloric acid at room temperature. Then 80 microlitres of AMBERLITE® IRA-67 (1.6M) acetate (meaning 1.5% molar amount with respect to the molar amount of doxorubicin hydrochloride) was added. The solution was then filtered, frozen and lyophilized.
Epirubicin hydrochloride (1550 mg) was dissolved in water (100 ml) and the pH corrected to 3.2-3.8 with hydrochloric acid at room temperature. The solution was warmed to 60° C.-65° C. for 1 hour and then the solution was cooled to 50-60° C. At the same time, the pH was corrected to 4.5-5.0 with AMBERLITE® IRA-67 free base. Then the solution was quickly filtered, frozen, and lyophilized.

[5] = cited from earlier work

For `COc1cccc2c1C(=O)c1c(O)c3c(c(O)c1C2=O)C[C@@](O)(C(=O)CO)C[C@@H]3O[C@H]1C[C@@H](N)[C@H](O)C(C)O1.Cl` (stereo partly drawn) [Doxorubicin HCl, Doxorubicin hydrochloride], the “% aglycone” value ([1]; 0.05 M formic acid, after addition of NH4OAc (4% molar), pH 2.71, 0.5 hr - 20° C.) was 0.13%, the “% aglycone” value ([1]; 0.05 M formic acid, after addition of NH4OAc (4% molar), pH 2.71, 1.0 hr - 20° C.) was 0.11% and the “% aglycone” value ([1]; 0.05 M formic acid, after addition of NH4OAc (4% molar), pH 2.71, 1.5 hr - 20° C.) was 0.12%. For the same compound, the “% aglycone” value ([1]; 0.05 M formic acid, after addition of NH4OAc (4% molar), pH 2.71, 2.0 hr - 20° C.) was 0.10%, the “% aglycone” value ([1]; 0.05 M formic acid, after addition of NH4OAc (4% molar), pH 2.71, 4.0 hr - 20° C.) was 0.14% and the “% aglycone in doxorubicin HCl” value ([1]; 0.1 N acetic acid, after addition of NH4OAc (4% molar), pH 3.02, 0.5 hr - 20° C.) was 0.20%. For the same compound, the “% aglycone in doxorubicin HCl” value ([1]; 0.1 N acetic acid, after addition of NH4OAc (4% molar), pH 3.02, 1.0 hr - 20° C.) was 0.13%, the “% aglycone in doxorubicin HCl” value ([1]; 0.1 N acetic acid, after addition of NH4OAc (4% molar), pH 3.02, 1.5 hr - 20° C.) was 0.12% and the “% aglycone in doxorubicin HCl” value ([1]; 0.1 N acetic acid, after addition of NH4OAc (4% molar), pH 3.02, 2.0 hr - 20° C.) was 0.35%. For the same compound, the “% aglycone in doxorubicin HCl” value ([1]; 0.1 N acetic acid, after addition of NH4OAc (4% molar), pH 3.02, 3.0 hr - 20° C.) was 0.12%, the “% aglycone in doxorubicin HCl” value ([1]; 0.1 N acetic acid, after addition of NH4OAc (4% molar), pH 3.02, 6.0 hr - 20° C.) was 0.16% and the “% aglycone” value ([1]; 500 mg in 0.001 N hydrochloric acid (20 ml), pH 3.25, 20° C., 1.0 hr) was 0.24%. For the same compound, the “% aglycone” value ([1]; 500 mg in 0.001 N hydrochloric acid (20 ml), pH 3.25, 20° C., 3.0 hr) was 0.21%, the “% aglycone” value ([1]; 500 mg in 0.001 N hydrochloric acid (20 ml), pH 3.25, 20° C., 5.0 hr) was 0.26% and the “% aglycone” value ([1]; 500 mg in 0.001 N hydrochloric acid (20 ml), pH 3.25, 20° C., 22.0 hr) was 0.25%. For the same compound, the “% aglycone” value ([1]; 500 mg in 0.05 M formic acid (20 ml), 1.0 hr - 20° C., pH 2.52, before addition of NH4OAc) was 0.20%, the “% aglycone in doxorubicin HCl” value ([1]; 500 mg in 0.1 N acetic acid (20 ml), 1.0 hr - 20° C., pH 2.62, before addition of NH4OAc) was 0.17% and the “% aglycone” value ([2]; lyophilized product obtained (IRA-67 acetate treatment)) was 0.09%. For the same compound, the “% aglycone” value ([2]; solution after treatment with 1.5% mol of IRA-67 acetate, slurried 2 hr, filtered, loaded into lyophilizer) was 0.07%, the “% aglycone” value ([2]; starting solid doxorubicin hydrochloride, 2.5% w/v in water, after correcting pH (4.75), before resin treatment) was 0.07% and the “% aglycone” value ([3]; 500 mg in water (10 ml), pH lowered from 5.4 to 3.5 with hydrochloric acid, 1 hr, 60° C.) was 0.11%. The “% aglycone” value ([3]; 500 mg in water (10 ml), pH lowered from 5.4 to 3.5 with hydrochloric acid, 2 hr, 60° C.) was 0.31%, the “% aglycone” value ([3]; pH 3.5 solution after two hours at 60° C., cooled, 1 hr, 20° C.) was 0.21% and the “% aglycone” value ([3]; pH 3.5 solution after two hours at 60° C., cooled, 3 hr, 20° C.) was 0.22%. The “aglycone contained in lyophilized product” value ([4]; Example 40: pH 3.5 with acetic acid, 60° C. for 2 hours, ammonium acetate 1.5% molar) was 0.12% and the “aglycone contained in lyophilized product” value ([4]; Example 43: pH 4.6-4.8, AMBERLITE IRA-67 acetate 1.5% molar, filtered) was 0.10%.
For `COc1cccc2c1C(=O)c1c(O)c3c(c(O)c1C2=O)C[C@@](O)(C(=O)CO)C[C@@H]3O[C@H]1C[C@@H](N)[C@H](O)C(C)O1` (stereo partly drawn) [Doxorubicin], the solubility ([5]; in acetone, benzene, chloroform and ethyl ether) is listed as “practically insoluble” and the solubility ([5]; in water, methanol) is listed as “soluble”.
For `COc1cccc2c1C(=O)c1c(O)c3c(c(O)c1C2=O)C[C@@](O)(C(=O)CO)C[C@@H]3O[C@H]1C[C@@H](N)[C@@H](O)C(C)O1` (stereo partly drawn) [Epirubicin], the solubility ([5]; in acetone, chloroform, and methylene chloride) is given as “practically insoluble” and the solubility ([5]; in water, methanol and ethyl alcohol, at a temperature of 50° C.) is given as “soluble”.
